pEC50: −log10 of the molar value. Values joined by “and” are separate entries in the source; they are usually repeats but may differ in a detail not shown here. Equal values may be shown once. Read-outs that look alike come from different tables or passages of the source.
Target: T1, human β3-adrenergic receptor (Homo sapiens, UniProt P13945)
T1 construct: Full length β3 AR clones (402 amino acids) containing the last 6 amino acids of hβ3—AR are prepared; expressed in transfected cells; host or cells: CHO cells
T1 sequence (P13945 whole entry): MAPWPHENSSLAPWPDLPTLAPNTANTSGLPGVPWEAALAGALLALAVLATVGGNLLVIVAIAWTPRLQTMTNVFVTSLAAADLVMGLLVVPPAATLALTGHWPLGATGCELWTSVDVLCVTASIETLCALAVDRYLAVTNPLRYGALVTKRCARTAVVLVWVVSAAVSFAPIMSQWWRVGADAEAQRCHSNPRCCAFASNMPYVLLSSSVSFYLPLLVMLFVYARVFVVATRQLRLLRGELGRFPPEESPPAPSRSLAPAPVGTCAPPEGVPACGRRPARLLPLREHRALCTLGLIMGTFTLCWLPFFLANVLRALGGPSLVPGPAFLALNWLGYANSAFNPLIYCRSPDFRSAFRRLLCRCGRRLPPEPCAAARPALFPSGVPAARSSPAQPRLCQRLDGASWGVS
Experiment: cAMP response (SPA kit) in CHO cells transfected with human β3 adrenergic receptor
Type: cell-based
Conditions: for pEC50: read-out: EC50(β3); for IA(β3): maximal response of compound compared to maximal response of isoproterenol at 10^-5 M, CHO cells, human β3-AR

[1] = CHO cells expressing human β3-AR, 10^-9 M to 10^-5 M, 30 min at 37° C., cAMP by SPA

Compound	pEC50 [1]	IA(β3)	EC50 (EC50(β3, μM), CHO cells expressing human β3-AR, 10^-9 M to 10^-5 M, 30 min at 37° C., cAMP by SPA)
O=C(O)COc1ccc(CNC(=O)N2CCC(Nc3ccc(CCNC[C@H](O)COc4ccc(O)cc4)cc3)CC2)c(F)c1 [Example 86, [3-Fluoro-4-[[[[4-[[4-[2-[[(S)-2-hydroxy-3-(4-hydroxyphenoxy)propyl]amino]ethyl]phenyl]amino]-1-piperidinyl]carbonyl]amino]methyl]phenoxy]acetic Acid]	6.90	1.1	–
O=C(NCc1ccc(O)cc1F)N1CCC(Nc2ccc(CCNC[C@H](O)COc3cccc(O)c3)cc2)CC1 [Example 87, 4-(4-{2-[(2S)-2-Hydroxy-3-(3-hydroxy-phenoxy)-propylamino]-ethyl}-phenylamino)-piperidine-1-carboxylic Acid 2-fluoro-4-hydroxy-benzylamide]	8.40	0.84	–
O=C(NCc1ccc(F)cc1)N1CCC(S(=O)(=O)c2ccc(CCNC[C@H](O)COc3ccc(O)cc3)cc2)CC1 [Example 45, 4-(4-{2-[(2S)-2-Hydroxy-3-(4-hydroxy-phenoxy)-propylamino]-ethyl}-benzenesulfonyl)-piperidine-1-carboxylic Acid 4-fluoro-benzylamide]	7.19	1.07	–
CCCCCCCCNC(=O)N1CCC(Oc2ccc(CCNC[C@H](O)COc3ccc(O)cc3)cc2)CC1 [Example 54, 4-[4-(2-{[(2S)-2-Hydroxy-3-(4-hydroxyphenoxy)propyl]amino}ethyl)phenoxy]-N-octyl-1-piperidinecarboxamide]	6.00 and 6.40	0.7 and 0.78 and 0.51	–
O=C(NCCc1cccc(F)c1)N1CCC(Nc2ccc(CCNC[C@H](O)COc3ccc(O)cc3)cc2)CC1 [Example 88, 4-(4-{2-[(2S)-2-Hydroxy-3-(4-hydroxy-phenoxy)-propylamino]-ethyl}-phenylamino)-piperidine-1-carboxylic Acid [2-(3-fluoro-phenyl)-ethyl]-amide]	7.68	0.81	–
CCCCCCCCNC(=O)N1CCC(Nc2ccc(CCNC[C@H](O)c3cccc(Cl)c3)cc2)CC1 [Example 36, 4-(4-{2-[(2R)-2-(3-Chloro-phenyl)-2-hydroxy-ethylamino]-ethyl}-phenylamino)-piperidine-1-carboxylic Acid Octylamide]	–	0.77	–
O=C(NCCCC1CCCC1)N1CCC(Nc2ccc(CCNC[C@H](O)COc3ccc(O)cc3)cc2)CC1 [Example 12, 1-4-(4-{2-[(2S)-2-Hydroxy-3-(4-hydroxy-phenoxy)-propylamino]-ethyl}-phenylamino)-piperidine-1-carboxylic Acid (3-cyclopentyl-propyl)-amide]	7.30	–	–
Oc1ccc(OC[C@@H](O)CNCCc2ccc(NC3CCN(c4nc(-c5ccccc5)cs4)CC3)cc2)cc1 [Example 117, 4-[(2S)-2-Hydroxy-3-(2-{4-[1l-(4-phenyl-thiazol-2-yl)-piperidin-4-ylamino]-phenyl}-ethylamino)-propoxy]-phenol]	6.68	1.1	–
CN(C)C(=O)Oc1ccc(CNC(=O)N2CCC(Nc3ccc(CCNC[C@H](O)COc4ccc(O)cc4)cc3)CC2)c(F)c1 [Example 84, Dimethyl-carbamic Acid 3-fluoro-4-({[4-(4-{2-[(2S)-2-hydroxy-3-(4-hydroxy-phenoxy)-propylamino]-ethyl}-phenlamino)-piperidine-1-carbonyl]-amino}-methyl)-phenyl Ester]	–	0.75	0.096 µM
O=C(CCNC(=O)N1CCC(Nc2ccc(CCNC[C@H](O)COc3ccc(O)cc3)cc2)CC1)Nc1ccc(F)cc1 [Example 81, 4-(4-{2-[(2S)-2-Hydroxy-3-(4-hydroxy-phenoxy)-propylamino]-ethyl}-phenylamino)-piperidine-1-carboxylic Acid [2-(4-fluoro-phenylcarbamoyl)-ethyl]-amide]	7.68	1	–
CC(=O)Nc1ccc(S(=O)(=O)N2CCC(Nc3ccc(CCNC[C@H](O)COc4ccc(O)cc4)cc3)CC2)cc1 [Example 114, N-{4-[4-(4-{2-[(2S)-2-Hydroxy-3-(4-hydroxy-phenoxy)-propylamino]-ethyl}-phenylamino)-piperidine-1-sulfonyl]-phenyl}-acetamide]	7.48	1.1	–
O=C(NCc1ccc(F)cc1)N1CCC(Nc2ccc(CCNC[C@H](O)COc3ccc(O)cc3)cc2)CC1 [Example 1, 4-(4-{2-[(2S)-2-Hydroxy-3-(4-hydroxy-phenoxy)-propylamino]-ethyl}-phenylamino)-piperidine-1-carboxylic Acid 4-fluoro-benzylamide]	7.49 and 7.44 and 7.30	0.95 and 0.71 and 0.91	–
CS(=O)(=O)Nc1cc([C@@H](O)CNCCc2ccc(NC3CCN(C(=O)N4CCC(C(=O)O)CC4)CC3)cc2)ccc1O [Example 52, 1-[4-(4-{2-[(2R)-2-Hydroxy-2-(4-hydroxy-3-methanesulfonylamino-phenyl)-ethylamino]-ethyl}-phenylamino)-piperidine-1-carbonyl]-piperidine-4-carboxylic Acid]	7.16	0.82	–
Cc1ccsc1C(=O)N1CCC(Nc2ccc(CCNC[C@H](O)COc3ccc(O)cc3)cc2)CC1 [Example 100, [4-(4-{2-[(2S)-2-Hydroxy-3-(4-hydroxy-phenoxy)-propylamino]-ethyl}-phenylamino)-piperidin-1-yl]-(3-methyl-thiophen-2-yl)-methanone]	7.80	0.98	–
CCCCCCCCNC(=O)N1CCC(Nc2ccc(OCCNC[C@H](O)COc3ccc(O)cc3)cc2)CC1 [Example 73, 4-(4-{2-[(2S)-2-Hydroxy-3-(4-hydroxy-phenoxy)-propylamino]-ethoxy}-phenylamino)-piperidine-1-carboxylic Acid Octylamide]	7.15	0.8	–
CC(=O)Nc1nc(C)c(S(=O)(=O)N2CCC(Nc3ccc(CCNC[C@H](O)c4ccc(O)c(NS(C)(=O)=O)c4)cc3)CC2)s1 [Example 115, N-(5-{[4-(4-{2-[((2R)-2-hydroxy-2-{4-hydroxy-3-[(methylsulfonyl)amino]phenyl}-ethyl)amino]ethyl}anilino)piperidin-1-yl]sulfonyl}-4-methyl-1,3-thiazol-2-yl)acetamide]	7.89	0.97	–
CNC(=O)N1CCC(Nc2ccc(CCNC[C@H](O)COc3ccc(O)cc3)cc2)CC1 [Example 9, 4-(4-{2-[(2S)-2-Hydroxy-3-(4-hydroxy-phenoxy)-propylamino]-ethyl}-phenylamino)-piperidine-1-carboxylic Acid Methylamide]	–	0.85	–
CCCCCCCCNC(=O)N1CCC(N(C(C)=O)c2ccc(CCNC[C@H](O)COc3ccc(O)cc3)cc2)CC1 [Example 8, 4-[Acetyl-(4-{2-[(2S)-2-hydroxy-3-(4-hydroxy-phenoxy)-propylamino]-ethyl}-phenyl)-amino]-piperidine-1-carboxylic Acid Octylamide]	7.19	0.82	–
CCCCCCNC(=O)Nc1ccc(S(=O)(=O)N2CCC(Nc3ccc(CCNC[C@H](O)COc4ccc(O)cc4)cc3)CC2)cc1 [Example 108, 1-Hexyl-3-{4-[4-(4-{2-[(2S)-2-hydroxy-3-(4-hydroxy-phenoxy)-propylamino]-ethyl}-phenylamino)-piperidine-1-sulfonyl]-phenyl}-urea]	8.15	1.08	–
O=C(NCc1ccc(O)cc1F)N1CCC(Nc2ccc(CCNCC(O)COc3ccc(O)cc3)cc2)CC1 (centres unmarked) [Example 83, 4-(4-{2-[2-Hydroxy-3-(4-hydroxy-phenoxy)-propylamino]-ethyl}-phenylamino)-piperidine-1-carboxylic Acid 2-fluoro-4-hydroxy-benzylamide]	–	0.88	–
O=C(NCC1(c2ccccc2)CCCC1)N1CCC(S(=O)(=O)c2ccc(CCNC[C@H](O)COc3ccc(O)cc3)cc2)CC1 [Example 46, 4-(4-{2-[(2S)-2-Hydroxy-3-(4-hydroxy-phenoxy)-propylamino]-ethyl}-benzenesulfonyl)-piperidine-1-carboxylic Acid (1-phenyl-cyclopentylmethyl)-amide]	6.79	0.82	–
CN(C(=O)CCNC(=O)N1CCC(Nc2ccc(CCNC[C@H](O)COc3ccc(O)cc3)cc2)CC1)c1ccc(Cl)cc1 [Example 82, 4-(4-{2-[(2S)-2-Hydroxy-3-(4-hydroxy-phenoxy)-propylamino]-ethyl}-phenylamino)-piperidine-1-carboxylic Acid {2-[(4-chloro-phenyl)-methyl-carbamoyl]-ethyl}-amide]	7.28	0.94	–
CCNC(=O)N1CCC(Nc2ccc(CCNC[C@H](O)COc3ccc(O)cc3)cc2)CC1 [Example 10, 4-(4-{2-[(2S)-2-Hydroxy-3-(4-hydroxy-phenoxy)-propylamino]-ethyl}-phenylamino)-piperidine-1-carboxylic Acid Ethylamide]	7.37	0.85	–
Cc1ccsc1C(=O)N1CCC(Nc2ccc(CCNC[C@H](O)COc3cccc4[nH]c(=O)[nH]c34)cc2)CC1 [Example 101, 4-[(2S)-2-Hydroxy-3-(2-{4-[1-(3-methyl-thiophene-2-carbonyl)-piperidin-4-ylamino]-phenyl}-ethylamino)-propoxy]-1,3-dihydro-benzoimidazol-2-one]	8.00	0.63	–
4-(4-{2-[(2S)-2-Hydroxy-3-(4-hydroxy-phenoxy)-propylamino]-ethyl}-phenylamino)-piperidine-1-carboxylic Acid 4-fluoro-benzylamide [Example 53]	–	1.17 and 1.5	–
4-[(2S)-2-Hydroxy-3-(2-{4-[-(1-methyl-1H-imidazole-4-sulfonyl)-piperidin-4-ylamino]-phenyl}-ethylamino)-propoxy]-phenol [Example 113]	6.89	1	–

Source: patent publication US6451814B1, “Heterocyclic β-3 adrenergic receptor agonists” (Wyeth, priority 2000, dated 2002)
